Source: US12286428B2 (BRISTOL-MYERS SQUIBB COMPANY, priority 2019, dated 2025)

Legend:
[1] = target: T1, IRAK4 (Homo sapiens, UniProt Q9NWZ3); test: IRAK4 Inhibition Assay; format: biochemical; settings: ATP 500 μM, IRAK4 0.6 nM, 60 min room temperature, Caliper LABCHIP 3000
T1 sequence (Q9NWZ3 1-460): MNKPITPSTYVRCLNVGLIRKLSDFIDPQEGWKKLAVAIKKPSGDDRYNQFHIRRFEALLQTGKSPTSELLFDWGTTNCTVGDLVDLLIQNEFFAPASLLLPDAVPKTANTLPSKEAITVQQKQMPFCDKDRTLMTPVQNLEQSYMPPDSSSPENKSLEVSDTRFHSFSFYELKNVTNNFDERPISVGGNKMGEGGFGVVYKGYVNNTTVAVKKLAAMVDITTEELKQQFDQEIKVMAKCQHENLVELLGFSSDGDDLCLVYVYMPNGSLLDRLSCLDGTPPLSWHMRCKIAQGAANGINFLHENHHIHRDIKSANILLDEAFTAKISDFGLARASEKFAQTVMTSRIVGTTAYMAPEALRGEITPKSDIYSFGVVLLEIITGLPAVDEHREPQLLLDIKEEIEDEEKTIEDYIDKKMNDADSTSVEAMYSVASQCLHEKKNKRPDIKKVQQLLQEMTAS
Method: The assays were performed in U-bottom 384-well plates. […] The reaction was initiated by the combination of IRAK4 with substrates and test compounds. The reaction mixture was incubated at room temperature for 60 min. and terminated by adding 45 μL of 35 mM EDTA to each sample. The reaction mixture was analyzed on the Caliper LABCHIP® 3000 (Caliper, Hopkinton, MA) by electrophoretic separation of the fluorescent substrate and phosphorylated product. […] The final concentrations of reagents in the assays are ATP, 500 μM; FL-[…] peptide 1.5 μM; IRAK4, 0.6 nM; and DMSO, 1.6%.

[2] = test system: Human whole blood, IL-6 levels after TLR2 agonist lipoteichoic acid; test: IRAK4 Whole Blood Assay; format: cell-based; settings: compounds 60 minutes at 37° C., lipoteichoic acid 10 μg/mL for 5 hours
Method: IRAK4 Whole Blood Assay Human whole blood containing the anti-coagulant ACD-A was plated in 384-well plate (25 μL/well) and incubated with compounds for 60 minutes at 37° C. in a 5% CO2 incubator. The blood was stimulated with a TLR2 agonist, 10 μg/mL final concentration of lipoteichoic acid (Invivogen, San Diego, CA) in 25 μL RPMI (Gibco) for 5 hours in a 5% CO2 incubator. At the end of the incubation, plates were centrifuged at 2300 rpm for 5 minutes. Supernatants were harvested and analyzed for IL-6 levels by Flow Cytometry beads assay (BD Biosciences, San Jose, CA).

[3] = FL-IPTSPITTTYFFFKKK peptide […]

## CC[C@@H]1[C@H](F)C(=O)N[C@@H]1COc1cccc2cc(C(N)=O)c3nccn3c12 [Example 5, 9-(((2S,3S,4S)-3-ethyl-4-fluoro-5-oxopyrrolidin-2-yl)methoxy)imidazo[1,2-a]quinoline-4-carboxamide]
[1]; [3]
  IC50: 1.3 nM
[2]
  IC50: 280 nM

## CC[C@H]1[C@@H](COc2cccc3cc(C(N)=O)c4nccn4c23)NC(=O)C1(F)F [Example 10, 9-(((2S,3S)-3-ethyl-4,4-difluoro-5-oxopyrrolidin-2-yl)methoxy)imidazo[1,2-a]quinoline-4-carboxamide]
[1]; [3]
  IC50: 1.9 nM
[2]
  IC50: 1390 nM

## CC[C@@H]1CC(=O)N[C@@H]1COc1cccc2cc(C(N)=O)c3nc(C)cn3c12 [Example 11, 9-(((2S,3R)-3-ethyl-5-oxopyrrolidin-2-yl)methoxy)-2-methylimidazo[1,2-a]quinoline-4-carboxamide]
[1]; [3]
  IC50: 3.4 nM
[2]
  IC50: 3460 nM

## CC[C@@H]1[C@H](F)C(=O)N[C@@H]1COc1cccc2cc(C(N)=O)c3nc(C)cn3c12 [Example 12, 9-(((2S,3S,4S)-3-ethyl-4-fluoro-5-oxopyrrolidin-2-yl)methoxy)-2-methylimidazo[1,2-a]quinoline-4-carboxamide]
[1]; [3]
  IC50: 2.2 nM
[2]
  IC50: 10000 nM

## CC[C@@H]1CC(=O)N[C@@H]1COc1ccc(F)c2cc(C(N)=O)c3nccn3c12 [Example 14, 9-(((2S,3R)-3-ethyl-5-oxopyrrolidin-2-yl)methoxy)-6-fluoroimidazo[1,2-a]quinoline-4-carboxamide]
[1]; [3]
  IC50: 1 nM
[2]
  IC50: 557 nM

## CC[C@@H]1[C@H](F)C(=O)N[C@@H]1COc1ccc(F)c2cc(C(N)=O)c3nccn3c12 [Example 15, 9-(((2S,3S,4S)-3-ethyl-4-fluoro-5-oxopyrrolidin-2-yl)methoxy)-6-fluoroimidazo[1,2-a]quinoline-4-carboxamide]
[1]; [3]
  IC50: 8.2 nM
[2]
  IC50: 2650 nM

## CC[C@@H]1CC(=O)N[C@@H]1COc1nccc2cc(C(N)=O)c3nccn3c12 [Example 16, 1-(((2S,3R)-3-ethyl-5-oxopyrrolidin-2-yl)methoxy)imidazo[1,2-a][1,7]naphthyridine-6-carboxamide]
[1]; [3]
  IC50: 11 nM
[2]
  IC50: 1520 nM

## CC[C@@H]1[C@H](F)C(=O)N[C@@H]1COc1nccc2cc(C(N)=O)c3nccn3c12 [Example 17, 1-(((2S,3S,4S)-3-ethyl-4-fluoro-5-oxopyrrolidin-2-yl)methoxy)imidazo[1,2-a][1,7]naphthyridine-6-carboxamide]
[1]; [3]
  IC50: 4.7 nM
[2]
  IC50: 94 nM

## CC[C@@H]1CC(=O)N[C@@H]1COc1nccc2cc(C(N)=O)c3nc(C)cn3c12 [Example 18, 1-(((2S,3R)-3-ethyl-5-oxopyrrolidin-2-yl)methoxy)-8-methylimidazo[1,2-a][1,7]naphthyridine-6-carboxamide]
[1]; [3]
  IC50: 19.7 nM
[2]
  IC50: 20000 nM

## CC[C@@H]1[C@H](F)C(=O)N[C@@H]1COc1nccc2cc(C(N)=O)c3nc(C)cn3c12 [Example 19, 1-(((2S,3S,4S)-3-ethyl-4-fluoro-5-oxopyrrolidin-2-yl)methoxy)-8-methylimidazo[1,2-a][1,7]naphthyridine-6-carboxamide]
[1]; [3]
  IC50: 3.2 nM
[2]
  IC50: 485 nM

## CC[C@H]1[C@@H](COc2nccc3cc(C(N)=O)c4nccn4c23)NC(=O)C1(F)F [Example 20, 1-(((2S,3S)-3-ethyl-4,4-difluoro-5-oxopyrrolidin-2-yl)methoxy)imidazo[1,2-a][1,7]naphthyridine-6-carboxamide]
[1]; [3]
  IC50: 8.8 nM
[2]
  IC50: 158 nM

## CC[C@H]1[C@@H](COc2nccc3cc(C(N)=O)c4nc(C)cn4c23)NC(=O)C1(F)F [Example 21, 1-(((2S,3S)-3-ethyl-4,4-difluoro-5-oxopyrrolidin-2-yl)methoxy)-8-methylimidazo[1,2-a][1,7]naphthyridine-6-carboxamide]
[1]; [3]
  IC50: 10.7 nM
[2]
  IC50: 533 nM

## CC[C@@H]1OC(=O)N[C@@H]1COc1nccc2cc(C(N)=O)c3nccn3c12 [Example 22, 1-(((4R,5S)-5-ethyl-2-oxooxazolidin-4-yl)methoxy)imidazo[1,2-a][1,7]naphthyridine-6-carboxamide]
[1]; [3]
  IC50: 2.1 nM
[2]
  IC50: 4780 nM

## CC[C@@H]1[C@H](F)C(=O)N[C@@H]1COc1cccc2cc(C(N)=O)n3nccc3c12 [Example 34, 10-(((2S,3S,4S)-3-ethyl-4-fluoro-5-oxopyrrolidin-2-yl)methoxy)pyrazolo[5,1-a]isoquinoline-5-carboxamide]
[1]; [3]
  IC50: 0.9 nM
[2]
  IC50: 279 nM

## CC[C@@H]1CC(=O)N[C@@H]1COc1cccc2cc(C(N)=O)n3nccc3c12 [Example 35, 10-(((2S,3R)-3-ethyl-5-oxopyrrolidin-2-yl)methoxy)pyrazolo[5,1-a]isoquinoline-5-carboxamide]
[1]; [3]
  IC50: 2.6 nM
[2]
  IC50: 1650 nM

## CC[C@@H]1[C@H](F)C(=O)N[C@@H]1COc1nccc2cc(C(N)=O)n3nccc3c12 [Example 36, 1-(((2S,3S,4S)-3-ethyl-4-fluoro-5-oxopyrrolidin-2-yl)methoxy)pyrazolo[5,1-a][2,7]naphthyridine-6-carboxamide]
[1]; [3]
  IC50: 0.7 nM
[2]
  IC50: 159 nM

## CC[C@@H]1CC(=O)N[C@@H]1COc1cccc2cc(C(N)=O)c3ncnn3c12 [Example 37, 9-(((2S,3R)-3-ethyl-5-oxopyrrolidin-2-yl)methoxy)-[1,2,4]triazolo[1,5-a]quinoline-4-carboxamide]
[1]; [3]
  IC50: 3.4 nM
[2]
  IC50: 586 nM

## CC[C@H]1[C@@H](COc2cccc3cc(C(N)=O)c4ncnn4c23)NC(=O)C1(F)F [Example 39, 9-(((2S,3S)-3-ethyl-4,4-difluoro-5-oxopyrrolidin-2-yl)methoxy)-[1,2,4]triazolo[1,5-a]quinoline-4-carboxamide]
[1]; [3]
  IC50: 15.9 nM
[2]
  IC50: 78 nM

## CC[C@@H]1CC(=O)N[C@@H]1COc1cccc2cc(C(N)=O)c3nnnn3c12 [Example 44, 9-(((2S,3R)-3-ethyl-5-oxopyrrolidin-2-yl)methoxy)tetrazolo[1,5-a]quinoline-4-carboxamide]
[1]; [3]
  IC50: 9.6 nM
[2]
  IC50: 1030 nM

## CC[C@@H]1CC(=O)N[C@@H]1COc1nccc2cc(C(N)=O)c3ncnn3c12 [Example 46, 9-(((2S,3R)-3-ethyl-5-oxopyrrolidin-2-yl)methoxy)-[1,2,4]triazolo[1,5-a][1,7]naphthyridine-4-carboxamide]
[1]; FL-[…] peptide 1.5 μM
  IC50: 9.7 nM
[2]
  IC50: 1080 nM

## CC[C@H]1[C@@H](COc2nccc3cc(C(N)=O)c4ncnn4c23)NC(=O)C1(F)F [Example 48, 9-(((2S,3S)-3-ethyl-4,4-difluoro-5-oxopyrrolidin-2-yl)methoxy)-[1,2,4]triazolo[1,5-a][1,7]naphthyridine-4-carboxamide]
[1]; [3]
  IC50: 16.9 nM
[2]
  IC50: 2250 nM

## CC[C@@H]1CC(=O)N[C@@H]1COc1nccc2cc(C(N)=O)c3nc(C)nn3c12 [Example 49, 9-(((2S,3R)-3-ethyl-5-oxopyrrolidin-2-yl)methoxy)-2-methyl-[1,2,4]triazolo[1,5-a][1,7]naphthyridine-4-carboxamide]
[1]; [3]
  IC50: 29.1 nM
[2]
  IC50: 2020 nM

## CC[C@@H]1CC(=O)N[C@@H]1COc1nccc2cc(C(N)=O)c3c(c12)CCO3 [Example 54, 1-(((2S,3R)-3-ethyl-5-oxopyrrolidin-2-yl)methoxy)-8,9-dihydrofuro[2,3-h]isoquinoline-6-carboxamide]
[1]; [3]
  IC50: 13.6 nM
[2]
  IC50: 1100 nM

## CC[C@@H]1CC(=O)N[C@@H]1COc1nccc2cc(C(N)=O)c3ncccc3c12 [Example 55, 1-(((2S,3R)-3-ethyl-5-oxopyrrolidin-2-yl)methoxy)-2,7-phenanthroline-6-carboxamide]
[1]; [3]
  IC50: 15.3 nM
[2]
  IC50: 879 nM

## CC[C@@H]1[C@H](F)C(=O)N[C@@H]1COc1nccc2cc(C(N)=O)c3ncccc3c12 [Example 56, 1-(((2S,3S,4S)-3-ethyl-4-fluoro-5-oxopyrrolidin-2-yl)methoxy)-2,7-phenanthroline-6-carboxamide]
[1]; [3]
  IC50: 2.8 nM
[2]
  IC50: 2130 nM

## CC[C@@H]1CC(=O)N[C@@H]1COC1=CC(F)=CC2C=C(C(N)=O)c3nccn3C12 (stereo partly drawn) [Example 57, 9-(((2S,3R)-3-ethyl-5-oxopyrrolidin-2-yl)methoxy)-7-fluoro-5a,9a-dihydroimidazo[1,2-a]quinoline-4-carboxamide]
[1]; [3]
  IC50: 9.7 nM
[2]
  IC50: 1460 nM

## CC[C@@H]1[C@H](F)C(=O)N[C@@H]1COC1=CC(F)=CC2C=C(C(N)=O)c3nccn3C12 (stereo partly drawn) [Example 58, 9-(((2S,3S,4S)-3-ethyl-4-fluoro-5-oxopyrrolidin-2-yl)methoxy)-7-fluoro-5a,9a-dihydroimidazo[1,2-a]quinoline-4-carboxamide]
[1]; [3]
  IC50: 15.4 nM
[2]
  IC50: 4230 nM
